Data: paper PMC12916490 (Molecular Psychiatry, 2025)
pKi: −log10 of the molar value.

Assays:
hDAT = target: T1, hDAT (Homo sapiens, UniProt Q01959); test: Radioligand binding, hDAT ([3H]WIN35,428)
T1 construct: expressed in transfected cells; host or cells: HEK 293 cells (membrane preparation)
Procedure: (§1) Binding affinities at human monoamine receptors and transporters were assessed as previously reported. A detailed description of the methodology is provided in the Supplementary information.
(§2) The IC50 values from the radioligand binding assays were determined by nonlinear regression, using three independent concentration-response curves fitted to a one-site model. The Cheng-Prusoff equation was used to calculate Kᵢ values for the competing ligands. EC50 values were determined by applying nonlinear regression to concentration-response curves. Bias factors (β) were calculated based on the relative intrinsic activity approach. More detailed information can be found in the Supplementary information. Mean values for total number of HTR, change in body temperature from pre to post session (Δ°C), and total distance traveled (cm) for each drug dose were compared (p < 0.05) via Welch’s ANOVA with Dunnett’s T3 post test, comparing all doses to respective vehicle controls (0 mg/kg). Welch’s ANOVA with Dunnett’s T3 post test was also used to compare drug concentrations, but the data were compared to DOM in this case. Dose–response relationships for HTR and locomotor activities were plotted using bell-shaped curve fits, while temperature change data were plotted using four-parameter non-linear regression curve fits. The ascending phase of the HTR curve for each drug was used to determine ED50 potency values from four parameter non-linear regression fits. For combined DOM and DOAM administration, the plasma, brain tissue, and brain dialysate drug concentrations were compared using paired t-tests (p < 0.05).
(§3) 3.1 Assessment of receptor and transporter binding affinities
(§4) Membrane preparations were prepared from cells transfected with the respective target. The membrane preparations were then incubated with selective radioligands at concentrations equal to the corresponding Kd and displacement of the ligand by the drugs was measured. The difference between total binding and nonspecific binding (determined in the presence of selective competitors) was defined as specific binding of the radioligand to the target receptor. The following transfected cell lines were used for the binding assays: HEK 293 cells (h5-HT1A, h5-HT2A, h5-HT2B, h5-HT2C, and hD2 receptors, hDAT, hNET, and hSERT), Chinese hamster ovary cells (hα 1A receptor), and Chinese hamster lung cells (hα 2A receptor).
(§5) 3.1.1 Membrane preparations for receptor and transporter binding
(§6) For producing membrane preparations, transfected cells were harvested with trypsin/EDTA, washed with ice-cold phosphate buffered saline, and then pelleted by centrifugation (210 × g for 5 min at 4 °C). The pellets were frozen and stored at -80 °C until use. Frozen pellets were resuspended in 20 m L (receptor binding) or 400 m L (transporter binding) buffer (20 mM HEPES -NaOH, 10 mM EDTA, pH 7.4), and homogenized at 1,100 × g for 20 s (receptor binding) or 560 × g for 15 s (transporter binding); the homogenates were then centrifuged at 48,000 × g for 30 min at 4 °C. For receptor binding assays, the supernatants were discarded and the pellets were resuspended in 20 mL buffer (20 mM HEPES-NaOH, 0.1 mM EDTA, pH 7.4) and homogenized at 1 ,100 × g for 20 s. Centrifugation and discarding of the supernatant were repeated once, and the final pellet was then resuspended in buffer and homogenized.
(§7) 3.1.2 Serotonin 5-HT1A and 5-HT2A receptor binding
(§8) Competitive binding at the h5-HT1A and h5-HT2A receptor was determined using 0.90 nM [ 3H]8-hydroxy-2-(di-n-propylamine)tetralin ([ 3H]8-OH-DPAT; h5-HT1A receptor agonist) and 0.40 nM [3H]ketanserin (h5-HT2 receptor antagonist) as radioligands. […]
(§9) binding of the radioligands was defined as difference between total binding (binding buffer alone) and nonspecific binding determined in the presence of 10 μM pindolol (h5-HT1A receptor antagonist) or 10 μM spiperone (h 5-HT2A receptor antagonist).

5-HT2A receptor = 5-HT2A receptor activation bias factors (relative intrinsic activity, 5-HT reference); assay type: cell-based, human; conditions: 5-HT as reference agonist; positive = preference for numerator pathway
Procedure: as §2
Bias factors close to 0 imply no bias toward either tested signaling pathway. Positive values indicate a preference for pathway 1, and negative values indicate a preference for pathway 2, relative to the reference agonist 5-HT. […]
the β-arrestin 2 molecule in the NanoBiT system) were seeded at a density of 50,000 cells per well in poly - D-lysine-coated 96-well plates in medium containing 10% dialyzed FBS. The plate was then incubated at […]
The following day, the cells were washed twice with 150 µL HBSS, and 100 µL HBSS was subsequently added to each well. Thereafter, 25 µL of substrate (1 :20 diluted in buffer) was added, and […]
agonist solutions was added, and the signal was monitored for 2 h. Drug dilutions in HBSS were made from 10 mM stock solutions in DMSO , yielding concentration ranges from 10 µM to 10 pM. All concentrations were run in duplicate and included the appropriate solvent controls. Efficacy was normalized to 5 -HT […]
3.2.3 Arachidonic acid release
Arachidonic acid release was assessed as a marker for Gαi/o,12/13 mediated signaling.
NIH/3T3 cells stably expressing the 5 -HT2A receptor were seeded at a density of 75,000 cells per well in a poly-D-lysine-coated 48-well plate. The following day, the cells were labeled with 300 μL [ 3H]arachidonic […]
Thereafter, the cells were washed 3 times for
(10 mM) of test substances were prepared in DMSO. The final dilution series of test substances dissolved […]
Thereafter, the plate was put on ice, and 400 μL incubation supernatant per well was transferred int o scintillation vials containing scintillation fluid (Ultimagold, Perkin Elmer, Schwerzenbach, Switzerland). The remaining supernatant was removed, and the cells were lysed with 1% sodium dodecyl sulfate lysis buffer. The obtained cell lysate was transferred into scintillation vials containing scintillation fluid. Radioactivity was measured on a liquid scintillation counter (Packard 1900 TR Tri-Carb Liquid Scintillation Counter; Packard Instrument Company). Efficacy was normalized to 5-HT activity.
3.2.4 Calculation of bias factors […]
using 5-HT as the reference agonist.
RApathway = EC50, i = EC50, ref×Emax,i […]
Then, the obtained RA values were used to calculate the bias factor (β) for each pathway combination. […]
pathway 1 over pathway 2. Brown-Forsythe and Welch ANOVA analyses were applied to estimate the […]

hNET = target: T2, hNET (Homo sapiens, UniProt P23975); test: Radioligand binding, hNET (N-methyl-[3H]nisoxetine)
T2 construct: expressed in transfected cells; host or cells: HEK 293 cells (membrane preparation)
Procedure: as §1, §2, §3, §4, §5, §6, §7, §8, §9

[1] = hDAT Ki, mean (95% CI), HEK 293 membranes

T1 sequence (Q01959 whole entry): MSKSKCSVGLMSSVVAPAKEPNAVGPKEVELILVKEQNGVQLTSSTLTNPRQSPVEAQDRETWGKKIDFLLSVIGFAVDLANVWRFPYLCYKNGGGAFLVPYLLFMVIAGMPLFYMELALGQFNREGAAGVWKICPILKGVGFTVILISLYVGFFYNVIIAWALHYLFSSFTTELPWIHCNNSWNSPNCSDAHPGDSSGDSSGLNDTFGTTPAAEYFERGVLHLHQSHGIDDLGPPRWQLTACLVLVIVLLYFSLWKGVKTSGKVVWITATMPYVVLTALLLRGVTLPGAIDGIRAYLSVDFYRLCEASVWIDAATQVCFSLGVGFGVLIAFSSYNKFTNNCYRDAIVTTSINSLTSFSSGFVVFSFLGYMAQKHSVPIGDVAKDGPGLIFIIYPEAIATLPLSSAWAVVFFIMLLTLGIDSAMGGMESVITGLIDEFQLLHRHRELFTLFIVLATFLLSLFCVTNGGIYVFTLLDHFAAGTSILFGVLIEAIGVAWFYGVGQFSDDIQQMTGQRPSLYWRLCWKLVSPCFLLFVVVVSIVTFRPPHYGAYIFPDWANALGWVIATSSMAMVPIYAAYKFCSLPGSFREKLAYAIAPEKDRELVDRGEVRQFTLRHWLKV
T2 sequence (P23975 whole entry): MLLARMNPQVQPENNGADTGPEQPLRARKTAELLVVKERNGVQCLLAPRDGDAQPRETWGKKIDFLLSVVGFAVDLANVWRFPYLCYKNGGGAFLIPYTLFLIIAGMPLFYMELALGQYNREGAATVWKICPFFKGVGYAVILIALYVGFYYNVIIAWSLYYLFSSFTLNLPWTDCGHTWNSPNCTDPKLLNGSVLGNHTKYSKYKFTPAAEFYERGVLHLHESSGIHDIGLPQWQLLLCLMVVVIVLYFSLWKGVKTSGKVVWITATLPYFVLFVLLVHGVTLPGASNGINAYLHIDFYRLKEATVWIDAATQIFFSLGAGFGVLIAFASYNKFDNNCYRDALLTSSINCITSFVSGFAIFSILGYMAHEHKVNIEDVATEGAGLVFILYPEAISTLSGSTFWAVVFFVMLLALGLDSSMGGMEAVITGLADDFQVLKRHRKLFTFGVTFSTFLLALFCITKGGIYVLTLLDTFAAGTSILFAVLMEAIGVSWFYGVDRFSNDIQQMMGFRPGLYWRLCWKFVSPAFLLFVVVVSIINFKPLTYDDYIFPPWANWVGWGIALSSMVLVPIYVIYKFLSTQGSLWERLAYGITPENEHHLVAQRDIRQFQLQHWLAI

SMILES	pKi (hDAT; [1])	Bias factor β Gαi/o,12/13/Gαq (5-HT2A receptor)	Bias factor β Gαi/o,12/13/β-arrestin 2 (5-HT2A receptor)	Bias factor β β-arrestin 2/Gαq (5-HT2A receptor)	pKi (hNET)	pKi (hDAT; Ki DAT, text value (range DAT and SERT 3.6–4.6))
COc1ccc(OC)c(CC(C)N)c1.Cl (stereo not shown) [2,5-DMA, 2,5-Dimethoxyamphetamine hydrochloride]	< 5.10	0.37	0.29	0.09	< 5.10	
CCCCCc1cc(OC)c(CC(C)N)cc1OC (stereo not shown) [DOAM, 4-amyl-2,5-dimethoxyamphetamine]	5.44	-0.30	0.43	-0.73	< 5.10	5.44
CCCCc1cc(OC)c(CC(C)N)cc1OC (stereo not shown) [DOBU, 4-butyl-2,5-dimethoxyamphetamine]	< 5.10	-0.61	0.25	-0.86	< 5.10	
CCc1cc(OC)c(CC(C)N)cc1OC (stereo not shown) [DOET, 4-ethyl-2,5-dimethoxyamphetamine]	< 5.10	0.16	0.07	0.08	< 5.10	
COc1cc(CC(C)N)c(OC)cc1C (stereo not shown) [DOM, 4-methyl-2,5-dimethoxyamphetamine]	< 5.10	0.04	0.39	-0.35	< 5.10	
CCCc1cc(OC)c(CC(C)N)cc1OC.Cl (stereo not shown) [DOPR, 4-propyl-2,5-dimethoxyamphetamine hydrochloride]	< 5.10	-0.53	0.11	-0.64	< 5.10	
